Test results: patent publication US12492188B2, “1H-benzo[D]imidazole derivatives as TLR9 inhibitors for the treatment of fibrosis” (BRISTOL-MYERS SQUIBB COMPANY, priority 2020, dated 2025)
Like-named read-outs stand apart in the source and are kept apart here.

Experiments:
human TLR9 = molecular target: T1, human TLR9 (Homo sapiens, UniProt Q9NR96); assay: TLR9 inhibition reporter assay (HEK-Blue cells, secreted embryonic alkaline phosphatase reporter); format: cell-based
T1 construct: host or cells: HEK-Blue cells (HEK293-derived reporter line)
T1 sequence (Q9NR96 26-1032): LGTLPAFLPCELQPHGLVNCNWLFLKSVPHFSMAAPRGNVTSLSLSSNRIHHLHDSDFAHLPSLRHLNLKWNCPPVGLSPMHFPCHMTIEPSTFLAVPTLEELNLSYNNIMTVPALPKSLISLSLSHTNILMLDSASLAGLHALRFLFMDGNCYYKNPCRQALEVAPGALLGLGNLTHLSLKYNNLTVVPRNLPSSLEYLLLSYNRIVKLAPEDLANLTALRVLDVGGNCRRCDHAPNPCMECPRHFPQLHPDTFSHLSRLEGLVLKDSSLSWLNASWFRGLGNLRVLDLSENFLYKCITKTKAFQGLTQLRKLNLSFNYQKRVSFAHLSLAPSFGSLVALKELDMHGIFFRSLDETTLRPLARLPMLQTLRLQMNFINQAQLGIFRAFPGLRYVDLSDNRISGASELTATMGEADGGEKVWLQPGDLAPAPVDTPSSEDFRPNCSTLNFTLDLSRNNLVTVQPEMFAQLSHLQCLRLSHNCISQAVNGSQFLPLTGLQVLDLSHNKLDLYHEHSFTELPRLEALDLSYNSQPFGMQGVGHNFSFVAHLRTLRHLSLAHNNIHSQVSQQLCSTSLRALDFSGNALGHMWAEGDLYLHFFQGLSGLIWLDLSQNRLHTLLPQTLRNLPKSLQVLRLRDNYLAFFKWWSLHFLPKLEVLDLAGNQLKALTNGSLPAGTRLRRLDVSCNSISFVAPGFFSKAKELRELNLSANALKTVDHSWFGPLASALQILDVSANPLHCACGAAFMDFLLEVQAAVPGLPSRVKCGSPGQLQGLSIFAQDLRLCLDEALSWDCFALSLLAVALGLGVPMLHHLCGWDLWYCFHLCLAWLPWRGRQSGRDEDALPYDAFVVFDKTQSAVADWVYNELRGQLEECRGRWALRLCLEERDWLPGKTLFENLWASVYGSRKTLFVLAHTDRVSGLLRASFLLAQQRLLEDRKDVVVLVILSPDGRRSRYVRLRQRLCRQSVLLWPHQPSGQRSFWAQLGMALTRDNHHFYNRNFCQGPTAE
How it was run: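 HEK-Blue cells expressing human TLR7, TLR8 or TLR9 with an NF-κB/AP-1-driven SEAP reporter were pretreated with compound (0.05 nM–50 μM final) for 30 min at room temperature. Agonists were gardiquimod 7.5 μM for TLR7, R848 15.9 μM for TLR8 and ODN2006 5 nM for TLR9. SEAP was read after 22 h at 37 °C, and inhibition was calculated relative to agonist-plus-DMSO and known-inhibitor controls.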

human TLR7 = molecular target: T2, human TLR7 (Homo sapiens, UniProt Q9NYK1); assay: TLR7 inhibition reporter assay (HEK-Blue cells, secreted embryonic alkaline phosphatase reporter); format: cell-based; conditions: HEK-Blue cells overexpressing human TLR7, stimulated with gardiquimod 7.5 μM; read-out: TLR 7 IC50
T2 construct: host or cells: HEK-Blue cells (HEK293-derived reporter line)
T2 sequence (Q9NYK1 27-1049): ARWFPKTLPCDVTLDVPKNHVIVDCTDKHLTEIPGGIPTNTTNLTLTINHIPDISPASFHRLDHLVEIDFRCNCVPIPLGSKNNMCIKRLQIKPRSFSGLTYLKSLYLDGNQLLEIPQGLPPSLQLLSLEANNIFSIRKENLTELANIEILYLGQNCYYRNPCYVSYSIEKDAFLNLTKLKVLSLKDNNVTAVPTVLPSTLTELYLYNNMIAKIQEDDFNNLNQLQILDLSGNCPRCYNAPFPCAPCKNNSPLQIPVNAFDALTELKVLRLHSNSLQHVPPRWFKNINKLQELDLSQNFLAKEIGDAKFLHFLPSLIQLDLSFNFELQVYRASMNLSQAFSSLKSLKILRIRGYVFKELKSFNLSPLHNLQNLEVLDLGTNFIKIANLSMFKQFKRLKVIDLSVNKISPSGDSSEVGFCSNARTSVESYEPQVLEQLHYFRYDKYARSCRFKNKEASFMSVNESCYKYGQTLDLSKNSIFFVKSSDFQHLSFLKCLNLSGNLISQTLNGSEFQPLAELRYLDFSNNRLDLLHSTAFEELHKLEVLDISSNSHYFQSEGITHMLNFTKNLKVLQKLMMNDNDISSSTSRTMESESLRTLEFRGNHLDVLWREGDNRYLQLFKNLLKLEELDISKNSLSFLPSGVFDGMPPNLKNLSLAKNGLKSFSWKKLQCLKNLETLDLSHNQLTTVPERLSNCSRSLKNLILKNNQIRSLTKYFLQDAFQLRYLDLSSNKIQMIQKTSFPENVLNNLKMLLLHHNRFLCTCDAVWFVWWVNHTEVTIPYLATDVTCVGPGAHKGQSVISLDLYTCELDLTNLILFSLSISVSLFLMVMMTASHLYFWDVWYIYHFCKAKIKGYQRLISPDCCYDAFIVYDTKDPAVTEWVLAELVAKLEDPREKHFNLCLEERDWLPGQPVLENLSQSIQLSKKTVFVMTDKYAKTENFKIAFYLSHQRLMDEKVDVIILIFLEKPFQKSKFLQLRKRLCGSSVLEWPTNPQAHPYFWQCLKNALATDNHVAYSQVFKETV
Method: TLR7/8/9 Inhibition Reporter Assays
HEK-Blue™-cells (Invivogen) overexpressing human TLR7, TLR8 or TLR9 receptors were used for screening inhibitors of these receptors using an inducible SLAP (secreted embryonic alkaline phosphatase) reporter gene under the control of the […] minimal promoter fused to five NF-κB and AP-1-binding sites. Briefly, cells are seeded into Greiner 384 well plates (15000 cells per well for TLR7, 20,000 for TLR8 and 25,000 for TLR9) and then treated with test compounds in DMSO to yield a final dose response concentration range of 0.05 nM-50 μM. After a 30 minute compound pre-treatment at room temperature, the cells are then stimulated with a TLR7 ligand (gardiquimod at a final concentration of 7.5 μM), TLR8 ligand (R848 at a final concentration of 15.9 μM) or TLR9 ligand (ODN2006 at a final concentration of 5 nM) to activate NF-κB and AP-1 which induce the production of SLAP. After a 22 hour incubation at 37° C., […], SLAP levels are determined with the addition of HEK-Blue™ Detection reagent (Invivogen), a cell culture medium that allows for detection of SLAP, according to manufacturer's specifications. The percent inhibition is determined as the […] in the HEK-Blue signal present in wells treated with agonist plus DMSO alone compared to wells treated with a known inhibitor.

[1] = HEK-Blue cells overexpressing human TLR9, stimulated with ODN2006 5 nM, 22 hour incubation, reporter readout
[2] = HEK-Blue cells overexpressing human TLR9, stimulated with ODN2006 5 nM, read-out: TLR 9 IC50

IC50 (human TLR9; [1]) | IC50 (human TLR9; [2]) | IC50 (human TLR7) | IC50 (human TLR9) | IC50 (human TLR9; HEK-Blue human TLR9 reporter cells) | Structure (SMILES)
1400 nM | 1360 nM | 11200 nM |  |  | Cc1cc(-c2ccc(CN3CCCC3)cc2)cc2c1nc(-c1ccc(S(C)(=O)=O)cc1)n2C [Example 395, 1,4-dimethyl-2-(4-(methylsulfonyl)phenyl)-6-(4-(pyrrolidin-1-ylmethyl)phenyl)-1H-benzo[d]imidazole]
 | 1770 nM | 11900 nM | 1800 nM |  | Cn1c(-c2ccc(S(C)(=O)=O)cc2)nc2ccc(C3CCN(C4CCN(C5COC5)CC4)CC3)c(F)c21 [Example 263, 7-fluoro-1-methyl-2-(4-(methylsulfonyl)phenyl)-6-(1′-(oxetan-3-yl)-[1,4′-bipiperidin]-4-yl)-1H-benzo[d]imidazole]
140 nM | 100 nM | 4300 nM |  |  | Cc1cc(-c2ccc(C3CCN(C)CC3)cc2)cc2c1nc(-c1ccc(S(C)(=O)=O)cc1)n2C [Example 363, 1,4-dimethyl-6-(4-(1-methylpiperidin-4-yl)phenyl)-2-(4-(methylsulfonyl)phenyl)-1H-benzo[d]imidazole]
 | 18 nM | > 50000 nM |  | 18 nM | Cn1c(-c2ccc(S(C)(=O)=O)cc2)nc2ccc(C3CCN(C4CCCN(C5CCOCC5)CC4)CC3)c(F)c21 (centres unmarked) [Example 317, 7-fluoro-1-methyl-2-(4-(methylsulfonyl)phenyl)-6-(1-(1-(tetrahydro-2H-pyran-4-yl)azepan-4-yl)piperidin-4-yl)-1H-benzo[d]imidazole]
200 nM | 203 nM | 6700 nM |  |  | Cc1cc(-c2ccc(CN3C[C@@H]4CN(CC(C)C)C[C@@H]4C3)cc2)cc2c1nc(-c1ccc(S(C)(=O)=O)cc1)n2C [Example 396, 6-(4-((cis-5-isobutylhexahydropyrrolo[3,4-c]pyrrol-2(1H)-yl)methyl)phenyl)-1,4-dimethyl-2-(4-(methylsulfonyl)phenyl)-1H-benzo[d]imidazole]
120 nM | 121 nM | 900 nM |  |  | Cc1cc(-c2ccc(CN3CCC(N4CCCC4)CC3)cc2)cc2c1nc(-c1ccc(S(C)(=O)=O)cc1)n2C [Example 369, 1,4-dimethyl-2-(4-(methylsulfonyl)phenyl)-6-(4-((4-(pyrrolidin-1-yl)piperidin-1-yl)methyl)phenyl)-1H-benzo[d]imidazole]
24 nM |  | 1900 nM |  |  | CC(C)N1CCC(N2CCC(c3cc(F)c4nc(-c5ccc(S(C)(=O)=O)cc5)n(C5CC5)c4c3)CC2)CC1 [Example 115, 1-cyclopropyl-4-fluoro-6-(1′-isopropyl-[1,4′-bipiperidin]-4-yl)-2-(4-(methylsulfonyl)phenyl)-1H-benzo[d]imidazole]
 | 23 nM |  | 23 nM |  | Cc1cc(C2CCN(C3CCCN(C4CCC4)CC3)CC2)cc2c1nc(-c1ccc(S(C)(=O)=O)cc1)n2C (centres unmarked) [Example 135, 6-(1-(1-cyclobutylazepan-4-yl)piperidin-4-yl)-1,4-dimethyl-2-(4-(methylsulfonyl)phenyl)-1H-benzo[d]imidazole]
 | 32 nM |  | 32 nM |  | COc1ccc(-c2nc3c(C)cc(C4CCN(C5CC6CCC(C5)N6CC5CCC5)CC4)cc3n2C)cc1OC (single isomer, unassigned) [Example 150, 6-(1-(8-(cyclobutylmethyl)-8-azabicyclo[3.2.1]octan-3-yl)piperidin-4-yl)-2-(3,4-dimethoxyphenyl)-1,4-dimethyl-1H-benzo[d]imidazole]
 | 34 nM |  | 34 nM |  | COc1ccc(-c2nc3c(C)cc(C4CCN(C5CC6CCC(C5)N6CC5CC5)CC4)cc3n2C)cc1OC (centres unmarked) [Example 148, 6-(1-(8-(cyclopropylmethyl)-8-azabicyclo[3.2.1]octan-3-yl)piperidin-4-yl)-2-(3,4-dimethoxyphenyl)-1,4-dimethyl-1H-benzo[d]imidazole]
 | 1780 nM |  | 1800 nM |  | Cc1cc(-c2ccc(N3CCN(CC4CCC4)CC3)cc2)cc2c1nc(-c1ccc(S(C)(=O)=O)cc1)n2C [Example 172, 6-(4-(4-(cyclobutylmethyl)piperazin-1-yl)phenyl)-1,4-dimethyl-2-(4-(methylsulfonyl)phenyl)-1H-benzo[d]imidazole]
1800 nM |  |  |  |  | Cc1cc(-c2ccc(CN3CCN(CC(C)C)CC3)cc2)cc2c1nc(-c1ccc(S(C)(=O)=O)cc1)n2C [Example 414, 6-(4-((4-isobutylpiperazin-1-yl)methyl)phenyl)-1,4-dimethyl-2-(4-(methylsulfonyl)phenyl)-1H-benzo[d]imidazole]
1800 nM | 1770 nM |  |  |  | Cc1noc(C)c1-c1nc2c(C)cc(C3CCN(C4CCN(CC(C)C)CC4)CC3)cc2[nH]1 [Example 71, 4-(6-(1′-isobutyl-[1,4′-bipiperidin]-4-yl)-4-methyl-1H-benzo[d]imidazol-2-yl)-3,5-dimethylisoxazole]
63 nM | 63 nM |  |  |  | Cc1cc(C2CCN(C3CCN(CC(C)C)CC3)CC2)cc2[nH]c(-c3ccc(S(=O)(=O)c4ccccc4)cc3)nc12 [Example 75, 6-(1′-isobutyl-[1,4′-bipiperidin]-4-yl)-4-methyl-2-(4-(phenylsulfonyl)phenyl)-1H-benzo[d]imidazole tris(2,2,2-trifluoroacetate)]
210 nM | 208 nM |  |  |  | Cc1cc(C2CCN(C3CCN(CC(C)C)CC3)CC2)cc2[nH]c(-c3nc4ccccc4s3)nc12 [Example 70, 2-(6-(1′-isobutyl-[1,4′-bipiperidin]-4-yl)-4-methyl-1H-benzo[d]imidazol-2-yl)benzo[d]thiazole tris(2,2,2-trifluoroacetate)]
